Experimental data as given in patent publication US12329851B2 (MedinCell S.A., priority 2021, dated 2025).

Assay: Population pharmacokinetics (PopPK) modeling
Design: species or system human
Conditions: after sc Risperidone formulation

final PopPK model estimate for clearance (CL): 5.78 L/h
SMILES: Cc1nc2n(c(=O)c1CCN1CCC(c3noc4cc(F)ccc34)CC1)CCCC2O (stereo not shown) [9-OH-risperidone, 9-hydroxy-risperidone]
